According to patent US20230346774A1, “METHODS OF STIMULATING AN ANTI-TUMOR RESPONSE USING A SELECTIVE GLUCOCORTICOID RECEPTOR MODULATOR” (Corcept Therapeutics Incorporated, priority 2020, published 2023):

Columns and labels:
[1] = system: healthy volunteers; test: Phase I healthy volunteer studies (prednisone challenge); type: in vivo, human; settings: for NLR: healthy volunteers with normal cortisol levels
From the text: (§1) GR is a broad regulator of immunosuppressive transcriptional programs, so we first assessed the transcriptional effects of prednisone in and/or relacorilant in whole blood. […] These three genes are known to play a role in suppressing the cytotoxic T-cell response.

[2] = system: patients with Cushing’s disease; test: Phase II study in patients with Cushing’s disease; type: in vivo, human
[3] = system: stimulated human PBMC’s; test: Activation of stimulated human PBMCs (PHA or αCD3+IL-12) +/- cortisol or cortisol + relacorilant; type: cell-based; settings: for cytokines and chemokines (including IFNγ, IL-1β, IL-1α, IL-6): PHA or αCD3 stimulation; for cytokines and chemokines (including IFNγ, IL-1β, IL-1α, IL-6) / Expression of CD137 (aka 41-BB) on CD8+ cells: physiological cortisol; for CD3+ cell surface receptors: PHA stimulation; for inflammatory cytokines such as TNF-α: induced by stimulation; for inflammatory cytokines such as TNF-α / Expression of CD137 (aka 41-BB) on CD8+ cells: relacorilant in presence of cortisol; for CD8+ T-cell activation / pro-inflammatory cytokine secretion (TNFα, IFNγ): αCD3+IL-12; for CD8+ T-cell activation: P<0.001; for pro-inflammatory cytokine secretion (TNFα, IFNγ): TNFα P=0.006, IFNγ P<0.05
Description: To understand the molecular consequences of GC activity on T-cell activation, the effects of cortisol and relacorilant were assessed on stimulated human PBMC’s. […] Expression of CD137 (aka 41-BB) on CD8+ cells was reduced by cortisol and rescued by relacorilant. […] Expression of CD137 (aka 41-BB) within CD8+ cells was reduced by cortisol and rescued by relacorilant. […] Thus, as shown also in FIG. 4, inflammatory cytokines such as TNF-α were induced by stimulation, suppressed by cortisol, and rescued by relacorilant. […] FIG. 6A and FIG. 6B show, following stimulation by phytohemagglutinin (PHA) (FIG. 6A) or αCD3 (FIG. 6B), suppression of cytokines and chemokines by cortisol and the restoration of cytokine/chemokine levels by relacorilant. (Supernatant IL-12 measurements were excluded from the analysis shown in FIG. 6B since the stimulation included recombinant IL-12.) Physiological levels of cortisol suppressed cytokines and chemokines, and this suppression was reversed by relacorilant.
(§2) Methods: Immune cell abundance and GR expression were assessed by IHC and calculated based on The Cancer Genome Atlas (TCGA) data. Human PBMCs were stimulated with αCD3+IL-12 +/- cortisol or cortisol + relacorilant. EG7 tumor-bearing mice were treated with αPD1 (RMP1-14) ip (intraperitoneally) Q5D (every fifth day) +/- daily relacorilant (QD). Whole blood mRNA was measured via Nanostring, hematology was performed using standard complete blood count assays, and cytokines were assessed by immunoassays in study NCT02762981.

[4] = molecular target: T1, GR (Homo sapiens, UniProt P04150); test: GR inverse agonism
T1 sequence (P04150 1-777): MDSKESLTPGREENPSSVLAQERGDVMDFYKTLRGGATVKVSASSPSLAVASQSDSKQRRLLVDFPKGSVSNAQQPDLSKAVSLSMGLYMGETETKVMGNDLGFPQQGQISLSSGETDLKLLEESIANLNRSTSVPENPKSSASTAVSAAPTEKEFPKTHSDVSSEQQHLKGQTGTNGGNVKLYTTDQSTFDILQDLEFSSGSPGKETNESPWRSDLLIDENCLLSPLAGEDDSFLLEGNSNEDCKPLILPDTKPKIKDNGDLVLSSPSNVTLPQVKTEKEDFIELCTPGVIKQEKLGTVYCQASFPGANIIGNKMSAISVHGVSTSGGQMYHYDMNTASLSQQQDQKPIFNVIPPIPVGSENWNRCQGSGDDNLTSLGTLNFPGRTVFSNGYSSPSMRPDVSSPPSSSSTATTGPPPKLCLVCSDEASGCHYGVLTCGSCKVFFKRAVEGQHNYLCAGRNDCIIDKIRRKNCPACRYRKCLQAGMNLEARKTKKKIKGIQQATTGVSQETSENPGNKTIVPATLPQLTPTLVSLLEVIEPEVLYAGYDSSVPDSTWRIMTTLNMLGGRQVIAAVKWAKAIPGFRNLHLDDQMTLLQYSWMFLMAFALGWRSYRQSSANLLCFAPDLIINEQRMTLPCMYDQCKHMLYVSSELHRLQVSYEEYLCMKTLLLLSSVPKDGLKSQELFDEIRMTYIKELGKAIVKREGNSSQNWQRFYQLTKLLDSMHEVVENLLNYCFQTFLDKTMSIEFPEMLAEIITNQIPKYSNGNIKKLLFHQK

[5] = system: EG7 tumor cells; test: EG7 tumor model in WT mice, αPD1 (RMP1-14) +/- relacorilant; type: in vivo, mouse; settings: for TNFα levels in terminal sera: sera collected between days 11 and 21
Description: The combination of PD1 antagonist antibody (RMP1-14) and relacorilant was assessed in the EG7 tumor model. Most reports have assessed αPD1 effects on EG7 cells in WT mice without added cortisol, so this more established model was used.
as §2

[6] = molecular target: T2, progesterone receptor (PR) (Homo sapiens, UniProt P06401); test: PR binding; settings: binding not observed at these concentrations
T2 sequence (P06401 1-933): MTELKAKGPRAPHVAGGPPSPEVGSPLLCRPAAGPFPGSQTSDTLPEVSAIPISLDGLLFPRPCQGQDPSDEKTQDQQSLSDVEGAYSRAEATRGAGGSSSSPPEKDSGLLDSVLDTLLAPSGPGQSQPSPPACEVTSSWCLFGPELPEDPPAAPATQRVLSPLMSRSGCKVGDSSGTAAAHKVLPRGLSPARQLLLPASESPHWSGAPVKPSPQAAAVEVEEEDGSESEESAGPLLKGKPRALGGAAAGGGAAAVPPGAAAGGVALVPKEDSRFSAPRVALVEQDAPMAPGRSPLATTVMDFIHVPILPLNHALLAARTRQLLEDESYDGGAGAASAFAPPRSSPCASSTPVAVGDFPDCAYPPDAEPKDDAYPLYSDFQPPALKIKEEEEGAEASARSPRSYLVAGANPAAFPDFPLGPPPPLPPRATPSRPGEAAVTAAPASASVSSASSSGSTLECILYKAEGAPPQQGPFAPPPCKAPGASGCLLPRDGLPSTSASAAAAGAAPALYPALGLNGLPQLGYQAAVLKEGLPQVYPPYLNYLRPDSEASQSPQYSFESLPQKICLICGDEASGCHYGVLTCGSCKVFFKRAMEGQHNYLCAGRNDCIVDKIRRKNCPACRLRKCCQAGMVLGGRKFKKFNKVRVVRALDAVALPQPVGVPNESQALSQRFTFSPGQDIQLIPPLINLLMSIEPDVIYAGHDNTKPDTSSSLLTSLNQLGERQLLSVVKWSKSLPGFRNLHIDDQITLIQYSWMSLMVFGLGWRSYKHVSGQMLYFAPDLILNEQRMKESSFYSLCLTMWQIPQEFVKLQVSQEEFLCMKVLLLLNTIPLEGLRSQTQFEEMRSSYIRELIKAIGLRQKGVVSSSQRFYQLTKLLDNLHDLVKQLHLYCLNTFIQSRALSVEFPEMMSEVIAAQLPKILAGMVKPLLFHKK

[7] = molecular target: T1, GR; test: GR binding; settings: read-out: Half-maximal GR binding
[8] = system: E.G7-OVA mouse lymphoma cells; test: Short term (7-day) EG7 pharmacodynamic study in B6 CD45.1 mice; type: in vivo
Description: A short term (7-day) EG7 pharmacodynamic study was conducted in female B6 CD45.1 mice to assess the effects of relacorilant+ αPD1 on T-cell proliferation and activation. Spleen and portions of tumor from B6 CD45.1 female mice subcutaneously inoculated with E.G7-OVA mouse lymphoma cells and treated with CORT125134 (30 mg/kg, administered p.o. once daily for 7 days) and RMP1-14 (10 mg/kg, administered i.p. on every fifth day for a total of two doses), alone and in combination, were analyzed via flow cytometry. Unlike the previous study, cell and cytokine analyses were synchronized and occurred before differences in tumor volume were detected (FIG. 14). Thus, in this study, changes in tumor volumes cannot influence the cytokine or T-cell measurements. There were no adverse effects of the treatments on clinical signs or body weight changes.
Antigen specific T-cells are key mediators of the anti-tumor immune response. The EG7 model expresses the model antigen ovalbumin. Antigen specific T-cells can be quantified by measuring T-cells that recognize ovalbumin. Cells which bind T-cells markers (such as anti-CD3 and anti-CD8) and bind labeled ovalbumin tetramers are thus considered antigen specific T-cells. Antigen specific T-cells were increased by the combination of relacorilant + αPD1 in the spleen and tumor (FIG. 15). […]

[9] = system: patients with advanced solid tumors; test: Phase I study of relacorilant+nab-paclitaxel in solid tumor patients (NCT02762981); settings: human, in vivo
Description: as §1, §2

[10] = system: rat model of corticosterone-induced insulin resistance; test: Rat model of corticosterone-induced insulin resistance; type: in vivo; settings: oral, doses giving systemic exposure similar to phase I studies
[11] = system: human stimulated PBMCs; test: Restoration of TNF-α production in stimulated PBMCs suppressed by GR agonists; type: cell-based; settings: PBMC, read-out: restoration of TNF-α production, half maximal effect
[12] = system: EG7 tumor cells; test: EG7 syngeneic model in OT-1/Rag-/- mice with cortisol in drinking water
Description: The suppressive effects of cortisol on CD8+ cytotoxic T-cells, and the ability of relacorilant to promote T-cell activation, were assessed in the EG7 syngeneic mouse model. EG7 tumor cells express ovalbumin, and the model was studied both in WT or OT-1/Rag^-/- mice. The OT-1/Rag^-/- mice only have T-cells expressing a transgenic ovalbumin-specific TCR. […] The combination of PD1 antagonist antibody (RMP1-14) and relacorilant was assessed in the EG7 tumor model.

`C[C@]12C=CC(=O)C=C1CC[C@@H]1[C@@H]2C(=O)C[C@@]2(C)[C@H]1CC[C@]2(O)C(=O)CO` [prednisone, reference compound] was tested, and the “transcriptional effect in whole blood” value ([1]; 25 mg dose, 4 hours post dose) was “large transcriptional effect” and the NLR [1] was “rapid an acute increase”.
With `Cn1cc(S(=O)(=O)N2CCC3=Cc4c(cnn4-c4ccc(F)cc4)C[C@]3(C(=O)c3cc(C(F)(F)F)ccn3)C2)cn1` [relacorilant, (R)-(1-(4-fluorophenyl)-6-((1-methyl-1H-pyrazol-4-yl)sulfonyl)-4,4a,5,6,7,8-hexahydro-1H-pyrazolo[3,4-g]isoquinolin-4a-yl)(4-(trifluoromethyl)pyridin-2-yl)methanone] the “effects of excess cortisol on hypertension and insulin resistance” value [2] was “demonstrated the ability to reverse”, the tolerability ([1]; healthy volunteers) was “demonstrated tolerability” and the NLR [1] was “does not affect NLR”. The “GR agonist induction of FKBP5 mRNA in whole blood” value ([1]; prednisone challenge) was “reversed”, the “GR agonist suppression of eosinophil abundance in whole blood” value ([1]; prednisone challenge) was “reversed” and the “prednisone-induced increase in the NLR” value ([1]; relacorilant co-dosed with prednisone) was “reversed”. The “cytokines and chemokines (including IFNγ, IL-1β, IL-1α, IL-6)” value [3] was “reversed”, the “CD3+ cell surface receptors” value [3] was “restoration” and the “inflammatory cytokines such as TNF-α” value [3] was “rescued”. For the same molecule, the “Expression of CD137 (aka 41-BB) on CD8+ cells” value [3] was “rescued”, the “CD8+ T-cell activation” value [3] was “restored” and the “pro-inflammatory cytokine secretion (TNFα, IFNγ)” value [3] was “restored”. The GR inverse agonism [4] was “not observed”, the “circulating IL-10” value ([5]; P<0.002) was “decreased” and the αPD1 efficacy ([5]; P=0.007) was “increased”. The “effect on tumor growth” value ([5]; WT mice without added cortisol) was “no significant effect”, the “TNFα levels in terminal sera” value [5] was “increased” and the IC50 [6] was greater than 1000 nM. The IC50 [7] was 0.15 nM, the “PD1 expression in splenic CD8 T-cells” value ([8]; 7 days) was “sufficient to induce” and the “PD-1+ as % CD8+ cells in spleens” value ([8]; vs Vehicle Control) was “significant (p≤0.05) increase”. For the same molecule, the “NLR in cancer patients with elevated baseline NLR” value [9] was “lowers”, the glucose and insulin [10] was “normalized glucose and insulin” and the EC50 [11] was 9 nM.
For cortisol, the “phenotypic effects of stimulation” value ([3]; 400 nM cortisol, PHA or αCD3+IL-12) was “potently suppressed nearly every phenotypic effect of stimulation”, the “cytokines and chemokines (including IFNγ, IL-1β, IL-1α, IL-6)” value [3] was “suppressed” and the “CD3+ cell surface receptors” value [3] was “suppression”. The “inflammatory cytokines such as TNF-α” value [3] was “suppressed”, the “Expression of CD137 (aka 41-BB) on CD8+ cells” value [3] was “reduced” and the “CD8+ T-cell activation” value [3] was “inhibited”. The “pro-inflammatory cytokine secretion (TNFα, IFNγ)” value [3] was “inhibited”, the “tumor growth on excess cortisol administration” value ([5]; cortisol added to relacorilant treatment) was “restored tumor growth” and the “tumor control or growth” value ([5]; cortisol in drinking water of wild type (WT) mice) was “no effect on tumor control or growth”. The “TNFα levels in terminal sera” value [5] was “suppressed”, the “mice with measurable tumors by day 10” value ([12]; OT-1/Rag-/- mice) was “All mice” and the tumor growth ([12]; OT-1/Rag-/- mice) was “rapid tumor growth”. For the same molecule, the “histologically confirmed complete remissions” value ([12]; OT-1/Rag-/- mice given cortisol +/- relacorilant) was “none” and the Premature deaths ([12]; OT-1/Rag-/- mice, 0/5 in controls) was 2/5.
